Test results taken from patent publication US7687484B2, “Transporter enhanced corticosteroid activity” (priority 2006, dated 2010).
Entries after “also recorded” stand apart in the source; their conditions may differ. Read-outs that look alike come from different tables or passages of the source.

What was measured:
glucocorticoid receptor [1] = target: T1, glucocorticoid receptor (Homo sapiens, UniProt P04150); settings: relative to dexamethasone = 100; average of all values if multiple available; cited from earlier work
T1 sequence (P04150 1-777): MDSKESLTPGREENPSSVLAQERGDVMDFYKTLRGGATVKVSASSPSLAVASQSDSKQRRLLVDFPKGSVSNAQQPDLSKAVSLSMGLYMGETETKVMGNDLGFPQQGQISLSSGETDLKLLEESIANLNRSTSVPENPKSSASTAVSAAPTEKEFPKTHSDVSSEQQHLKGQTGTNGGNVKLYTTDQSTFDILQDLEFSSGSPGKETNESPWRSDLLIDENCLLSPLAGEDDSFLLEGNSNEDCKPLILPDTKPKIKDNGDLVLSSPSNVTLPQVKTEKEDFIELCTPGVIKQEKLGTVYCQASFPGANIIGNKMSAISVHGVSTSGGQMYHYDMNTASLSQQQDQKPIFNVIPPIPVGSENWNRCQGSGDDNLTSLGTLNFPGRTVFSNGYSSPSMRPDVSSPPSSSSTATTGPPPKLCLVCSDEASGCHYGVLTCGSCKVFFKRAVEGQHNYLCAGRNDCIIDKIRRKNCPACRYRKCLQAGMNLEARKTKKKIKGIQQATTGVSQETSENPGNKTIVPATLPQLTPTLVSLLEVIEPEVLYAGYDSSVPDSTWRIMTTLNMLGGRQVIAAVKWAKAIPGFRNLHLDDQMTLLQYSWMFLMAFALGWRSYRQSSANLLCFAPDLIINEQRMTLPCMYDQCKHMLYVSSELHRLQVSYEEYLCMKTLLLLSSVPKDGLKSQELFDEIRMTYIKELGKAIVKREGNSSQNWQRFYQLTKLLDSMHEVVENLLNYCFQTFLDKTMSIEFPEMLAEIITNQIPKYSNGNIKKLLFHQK

[2] = logP reported in literature; cited from earlier work
transcortin (CBG) = target: T2, transcortin (CBG) (Homo sapiens, UniProt P08185); assay: Binding of corticosteroids to transcortin: 3H-cortisol competition in charcoal-treated diluted plasma
T2 construct: from tissue; host or cells: plasma from venous blood of healthy volunteers, charcoal-treated, diluted 100-fold
T2 sequence (P08185 23-405): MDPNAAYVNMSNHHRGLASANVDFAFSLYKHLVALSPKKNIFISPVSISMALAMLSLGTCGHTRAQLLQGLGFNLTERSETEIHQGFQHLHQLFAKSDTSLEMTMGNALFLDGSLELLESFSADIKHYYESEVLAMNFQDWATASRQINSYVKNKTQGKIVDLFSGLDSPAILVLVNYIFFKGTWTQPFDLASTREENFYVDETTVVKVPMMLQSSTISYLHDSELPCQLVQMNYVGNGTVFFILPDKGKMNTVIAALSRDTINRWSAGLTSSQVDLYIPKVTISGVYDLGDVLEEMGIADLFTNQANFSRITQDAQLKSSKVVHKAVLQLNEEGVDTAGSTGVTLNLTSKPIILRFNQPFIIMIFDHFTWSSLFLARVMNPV
Method: Experimental procedure: Venous blood was collected from healthy volunteers into heparin-containing tubes (5 Us/100 ml serum) and cells were separated from plasma by centrifugation (1500 g for 15 min). […] Charcoal-treated plasma was diluted 100-fold with binding buffer (10 mM Tris-HCl; 2 mM DTT (dithiotreitol); 1.5 mM EDTA; 0.02 M Na2MoO4; 10% Glycerol; pH 7.4) and was stored aliquoted at −80° C. […] The assay ingredients were mixed and the tubes were incubated for 1 hour on ice. At the end of the incubation, 0.2 ml of charcoal suspension (0.5% Norit A and 0.05% BSA) was added to each tube. The tubes were briefly agitated and incubated for an additional 10 min at 0° C. They were then centrifuged for 10 min at 15 000 g, and the same aliquots from the clear supernatants were quantitatively decanted into counting vials and combined with 3 ml of toluene-based scintillation fluid. […] Specific binding and IC50-values were calculated.

glucocorticoid receptor [3] = target: T1, glucocorticoid receptor; assay: Relative binding affinity for the glucocorticoid receptor (GCR/GR); settings: GRs were calculated from RBAs; read-out: GR Est. IC50
[4] = test system: forearms of human volunteers; assay: Human vasoconstriction (blanching) testing; format: in vivo; parameters: key to Vasoconstriction activity (total score of 4 tests): sum of 4 tests, each 0 = normal skin to 4 = very intense pallor
Method: Solutions of LE, HC and PRN (0.1 or 1 mM) alone, or mixtures of LE and HC (0.1+0.1 mM, or 1+1 mM), or LE and PRN (0.1+0.1 mM, or 1+1 mM) were prepared with a vehicle containing absolute ethanol and propylene glycol (9:1). […] After evaporation of ethanol (20 min), the films were applied to the forearms of human volunteers for 4 hours. Subsequently, the vasoconstriction reaction was read and judged by the appearance of pallor at various time intervals after the removal of the discs and films. The grading scale was as follows: 0, normal skin; 1, slight pallor; 2, pallor with at least two corners outlined; 3, even pallor with a clear outlined of the application sites; 4, very intense pallor. Due to the relatively high variations in response between the volunteers, a total score of 4 tests at each time point was taken for the activity evaluation.

[5] = target: T3, Corticosteroid Binding Globulin (CBG), transcortin (Homo sapiens, UniProt P08185); settings: cited from earlier work; for Class: CBG binding activity class
T3 sequence (P08185 23-405): T2 sequence (P08185 23-405)

[6] = estimated, unpublished results Bodor, Kurucz 2006, read-out: CBG Est. IC50
[7] = 3 nM 3H-cortisol, 1 hour on ice, plasma diluted 100-fold, read-out: IC50-values (nM) average ± SEM (n)

Compound | rBA (relative receptor binding affinity) (glucocorticoid receptor [1]) | logP [2] | IC50 (transcortin (CBG); [6]) | IC50 (transcortin (CBG); [7]) | also measured
CCCC(=O)O[C@]1(C(=O)CO)CC[C@H]2[C@@H]3CCC4=CC(=O)CC[C@]4(C)[C@H]3[C@@H](O)C[C@@]21C [Hydrocortisone 17-butyrate] | 95 |  |  |  | 
CCC(=O)O[C@]1(C(=O)CO)CC[C@H]2[C@@H]3CCC4=CC(=O)CC[C@]4(C)[C@H]3[C@@H](O)C[C@@]21C [Hydrocortisone 17-propionate] | 79 | 2.70 |  |  | 
CCC(=O)O[C@]1(C(=O)SCF)[C@H](C)C[C@H]2[C@@H]3C[C@H](F)C4=CC(=O)C=C[C@]4(C)[C@@]3(F)[C@@H](O)C[C@@]21C [Fluticasone propionate] |  | 4.20 | > 10000 nM |  | 
C[C@@H]1C[C@H]2[C@@H]3CCC4=CC(=O)C=C[C@]4(C)[C@@]3(Cl)[C@@H](O)C[C@]2(C)[C@@]1(O)C(=O)CCl [Mometasone] | 88 |  |  |  | 
CC(=O)O[C@]1(C(=O)CO)CC[C@H]2[C@@H]3CCC4=CC(=O)CC[C@]4(C)[C@H]3[C@@H](O)C[C@@]21C [Hydrocortisone 17-acetate] | 41 |  |  |  | 
C[C@]12CCC(=O)C=C1CCC1C2[C@@H](O)C[C@@]2(C)C1CC[C@]2(O)C(=O)O (stereo partly drawn) [Cortienic acid (CA) GYKI-24805, 11β,17α-dihydroxyandrost-4-en-3-one-17β-carboxylic acid] |  |  | 120 nM | 117 ± 49 nM | IC50 (glucocorticoid receptor [3]): > 1000 nM
COC(=O)[C@@]1(O)CCC2C3CCC4=CC(=O)C=C[C@]4(C)C3[C@@H](O)C[C@@]21C (stereo partly shown) [Δ1-CA-Me GYKI-24776, Δ^1-CA, methyl ester] |  |  | 30 nM | 31 ± 11 nM | IC50 (glucocorticoid receptor [3]): > 1000 nM
C[C@]12CCC(=O)C=C1CCC1C2[C@@H](O)C[C@@]2(C)C1CC[C@]2(O)C(=O)CO (stereo partly shown) [Hydrocortisone (cortisol), hydrocortisone] |  | 1.61 | 70 nM | 69 ± 8 nM | Vasoconstriction activity (total score of 4 tests) ([4]; 0.1 mM, 2 hr after removal, 4 h application): 0; Vasoconstriction activity (total score of 4 tests) ([4]; 0.1 mM, 4 hr after removal): 0; Vasoconstriction activity (total score of 4 tests) ([4]; 0.1 mM, 6 hr after removal): 0; Vasoconstriction activity (total score of 4 tests) ([4]; 0.1 mM, 8 hr after removal): 0; Vasoconstriction activity (total score of 4 tests) ([4]; 0.1 mM, 10 hr after removal): 0; Vasoconstriction activity (total score of 4 tests) ([4]; 0.1 mM, 16 hr after removal): 0; Vasoconstriction activity (total score of 4 tests) ([4]; 0.1 mM, 18 hr after removal): 0; Vasoconstriction activity (total score of 4 tests) ([4]; 0.1 mM, 24 hr after removal): 0; Vasoconstriction activity (total score of 4 tests) ([4]; 1 mM, 2 hr after removal, 4 h application): 0; Vasoconstriction activity (total score of 4 tests) ([4]; 1 mM, 4 hr after removal): 0; Vasoconstriction activity (total score of 4 tests) ([4]; 1 mM, 6 hr after removal): 0; Vasoconstriction activity (total score of 4 tests) ([4]; 1 mM, 8 hr after removal): 0; Vasoconstriction activity (total score of 4 tests) ([4]; 1 mM, 10 hr after removal): 0; Vasoconstriction activity (total score of 4 tests) ([4]; 1 mM, 16 hr after removal): 0; Vasoconstriction activity (total score of 4 tests) ([4]; 1 mM, 18 hr after removal): 0; Vasoconstriction activity (total score of 4 tests) ([4]; 1 mM, 24 hr after removal): 0; Vasoconstriction activity alone (in words) ([4]; by itself, concentration range 0.1 to 1 mM, human skin, listed as HC): do not yield any detectable activity; also recorded: no activity; Class [5]: 1
CCOC(=O)[C@@]1(OC(=O)C(Cl)Cl)CC[C@H]2[C@@H]3CCC4=CC(=O)C=C[C@]4(C)[C@H]3[C@@H](O)C[C@@]21C [Etiprednol dicloacetate (BNP-166), Etiprednol dicloacetate] | 200 |  |  | 4500 ± 973 nM | 
C[C@H]1C[C@H]2[C@@H]3CCC4=CC(=O)C=C[C@]4(C)[C@@]3(F)[C@@H](O)C[C@]2(C)[C@@]1(O)C(=O)CO [Betamethasone] |  | 1.94 |  |  | 
C[C@]12C[C@H](O)[C@H]3[C@@H](CCC4=CC(=O)CC[C@@]43C)[C@@H]1CC[C@@H]2C(=O)CO [Corticosterone] | 35 | 1.94 |  |  | Class [5]: 1; Log 1/K ([5]; CBG binding affinity, literature data): −7.881
CC1(C)O[C@@H]2C[C@H]3[C@@H]4C[C@H](F)C5=CC(=O)C=C[C@]5(C)[C@H]4[C@@H](O)C[C@]3(C)[C@]2(C(=O)CO)O1 [Flunisolide] | 165 | 2.28 |  |  | 
CCCC1O[C@@H]2C[C@H]3[C@@H]4CCC5=CC(=O)C=C[C@]5(C)[C@H]4[C@@H](O)C[C@]3(C)[C@]2(C(=O)CO)O1 (stereo partly shown) [Budesonide, 22R, Budesonide] |  | 3.24 |  |  | 
CCC(=O)O[C@]1(C(=O)CCl)[C@@H](C)C[C@H]2[C@@H]3CCC4=CC(=O)C=C[C@]4(C)[C@@]3(F)[C@@H](O)C[C@@]21C [Clobetasol propionate] | 6300 | 3.83 |  |  | 
C[C@]12C=CC(=O)C=C1CCC1C2[C@@H](O)C[C@@]2(C)C1CC[C@]2(O)C(=O)O (stereo partly shown) [Δ1-CA GYKI-24762, Δ^1-cortienic acid] |  |  | 50 nM | 52 ± 10 nM | IC50 (glucocorticoid receptor [3]): > 1000 nM
